Results on 18 compounds are retold here after US20230257372A1 (CHONG KUN DANG PHARMACEUTICAL CORP., priority 2020, published 2023).

Where two headings read alike, the source gives them in different places. Where only a bound is given, the exact number is not on record here.

One assay addresses T1, human recombinant HDAC6 (Homo sapiens, UniProt Q9UBN7).
T1 construct: purchased Calbiochem Inc. 382180
T1 sequence (Q9UBN7 1-1215): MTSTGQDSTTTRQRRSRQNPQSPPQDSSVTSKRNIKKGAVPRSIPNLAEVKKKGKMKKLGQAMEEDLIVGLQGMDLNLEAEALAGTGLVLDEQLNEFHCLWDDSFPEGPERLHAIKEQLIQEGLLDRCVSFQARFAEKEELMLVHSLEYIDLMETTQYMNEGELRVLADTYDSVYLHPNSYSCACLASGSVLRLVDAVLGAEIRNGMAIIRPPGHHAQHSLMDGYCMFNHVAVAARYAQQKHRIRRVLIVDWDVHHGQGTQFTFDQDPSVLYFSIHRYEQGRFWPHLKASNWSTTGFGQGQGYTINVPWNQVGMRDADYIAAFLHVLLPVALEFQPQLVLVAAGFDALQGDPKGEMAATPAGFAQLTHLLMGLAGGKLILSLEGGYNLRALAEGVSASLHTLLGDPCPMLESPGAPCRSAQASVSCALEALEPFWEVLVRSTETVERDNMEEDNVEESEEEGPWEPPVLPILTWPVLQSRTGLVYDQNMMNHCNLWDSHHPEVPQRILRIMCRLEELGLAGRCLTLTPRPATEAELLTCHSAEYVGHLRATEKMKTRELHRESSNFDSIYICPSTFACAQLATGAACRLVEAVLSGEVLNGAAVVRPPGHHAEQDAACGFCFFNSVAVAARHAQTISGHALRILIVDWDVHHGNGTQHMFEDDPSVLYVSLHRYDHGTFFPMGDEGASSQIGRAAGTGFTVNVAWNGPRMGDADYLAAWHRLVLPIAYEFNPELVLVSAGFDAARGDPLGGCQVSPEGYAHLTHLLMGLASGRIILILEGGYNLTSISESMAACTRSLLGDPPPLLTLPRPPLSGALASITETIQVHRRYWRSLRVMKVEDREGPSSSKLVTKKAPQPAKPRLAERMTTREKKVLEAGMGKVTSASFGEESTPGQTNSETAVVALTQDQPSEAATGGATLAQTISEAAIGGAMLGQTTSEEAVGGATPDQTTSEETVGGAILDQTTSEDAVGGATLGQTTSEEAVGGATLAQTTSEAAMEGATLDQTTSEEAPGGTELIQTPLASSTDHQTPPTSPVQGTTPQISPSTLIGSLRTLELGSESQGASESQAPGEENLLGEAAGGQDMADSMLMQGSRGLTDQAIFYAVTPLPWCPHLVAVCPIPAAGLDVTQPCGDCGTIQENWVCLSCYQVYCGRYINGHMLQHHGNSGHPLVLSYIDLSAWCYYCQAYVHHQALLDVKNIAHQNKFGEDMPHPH
The assay is described as follows: HDAC6 enzyme activity inhibition (HDAC Fluorimetric Drug Discovery Kit). The assay is classed as biochemical. Put shortly:
(§1)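 Five-fold compound dilutions incubated with […] recombinant enzyme and 10 μM fluorogenic Fluor de Lys substrate, 60 min at 30° C. Fluor de Lys Developer II then added for 30 min to generate the fluorescent read-out.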

The target of another assay is T2, human recombinant HDAC1 (Homo sapiens, UniProt Q13547).
T2 construct: purchased Enzo Life Science, Inc. BML-SE456
T2 sequence (Q13547 whole entry): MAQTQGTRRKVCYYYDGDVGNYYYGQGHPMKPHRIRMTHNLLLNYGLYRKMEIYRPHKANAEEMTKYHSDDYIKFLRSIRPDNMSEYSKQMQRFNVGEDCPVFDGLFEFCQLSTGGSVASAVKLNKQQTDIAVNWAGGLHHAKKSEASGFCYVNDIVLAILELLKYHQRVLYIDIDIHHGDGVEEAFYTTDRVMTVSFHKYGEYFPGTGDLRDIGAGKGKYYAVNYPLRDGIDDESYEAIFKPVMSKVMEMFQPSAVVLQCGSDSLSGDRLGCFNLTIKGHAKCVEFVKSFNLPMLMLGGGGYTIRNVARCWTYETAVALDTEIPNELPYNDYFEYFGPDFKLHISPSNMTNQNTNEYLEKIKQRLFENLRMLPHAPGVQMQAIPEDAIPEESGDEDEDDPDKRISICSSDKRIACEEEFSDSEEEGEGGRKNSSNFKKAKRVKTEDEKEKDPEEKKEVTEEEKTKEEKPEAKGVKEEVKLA
The assay is described as follows: HDAC1 enzyme activity inhibition (HDAC Fluorimetric Drug Discovery Kit). The assay is classed as biochemical. The following applies: read-out: HDAC1. Put shortly:
as §1

[1] abbreviates: human recombinant HDAC6, IC50 calculated with GraphPad Prism.
Setting [2] is: human recombinant HDAC1, IC50 calculated with GraphPad Prism.
The mark [3] stands for this setting: human recombinant HDAC6, same protocol as HDAC1.
Setting [4] is: human recombinant HDAC1, Fluor de Lys substrate, 30° C. 60 minutes.

`CS(=O)(=O)N1CCC(c2cn(Cc3ccc(-c4nnc(C(F)F)o4)cn3)nn2)CC1` [Compound 3812]: on human recombinant HDAC6 (HDAC1 IC50 / HDAC6 IC50), the “HDAC6 selectivity (fold)” value worked out at 446 fold. For the same compound, the IC50 on human recombinant HDAC6 (setting [1]) was 112 nM; at human recombinant HDAC1 (setting [2]), over 50000 nM.

In the case of `CC(C)N1CCN(c2cccc(-c3cn(Cc4ccc(-c5nnc(C(F)F)o5)cn4)nn3)c2F)CC1` [Compound 4571, 2-(difluoromethyl)-5-(6-((4-(2-fluoro-3-(4-isopropylpiperazin-1-yl)phenyl)-1H-1,2,3-triazol-1-yl)methyl)pyridin-3-yl)-1,3,4-oxadiazole], the “HDAC6 selectivity (fold)” value on human recombinant HDAC6 (HDAC6 over HDAC1) is reported as 2732 fold. Also, the IC50 on human recombinant HDAC6 (setting [3]) was 18.3 nM; on human recombinant HDAC1 (setting [4]), over 50000 nM.

Regarding `FC(F)c1nnc(-c2ccc(Cn3cc(-c4ccc(Br)cn4)nn3)nc2)o1` [Compound 4180, 2-(6-((4-(5-bromopyridin-2-yl)-1H-1,2,3-triazol-1-yl)methyl)pyridin-3-yl)-5-(difluoromethyl)-1,3,4-oxadiazole], at human recombinant HDAC6 (HDAC1 IC50 / HDAC6 IC50), the “HDAC6 selectivity (fold)” value came out at 1506 fold. In addition, the IC50 is 33.2 nM at human recombinant HDAC6 (setting [1]) and over 50000 nM on human recombinant HDAC1 (setting [2]).

Consider `Fc1cc(-c2nnc(C(F)F)o2)ccc1Cn1cc(-c2ccc(Cl)nc2)nn1` [Compound 16781, 2-(4-((4-(6-chloropyridin-3-yl)-1H-1,2,3-triazol-1-yl)methyl)-3-fluorophenyl)-5-(difluoromethyl)-1,3,4-oxadiazole], for which, at human recombinant HDAC6 (HDAC6 over HDAC1), the “HDAC6 selectivity (fold)” value turned out to be 546 fold. Further, the IC50 on human recombinant HDAC6 (setting [3]) was 91.5 nM; on human recombinant HDAC1 (setting [4]) it was over 50000 nM.

Regarding `FC(F)c1nnc(-c2ccc(Cn3cc(-c4ccc5c(c4)CN(C4COC4)CC5)nn3)nc2)o1` [Compound 4213, 2-(difluoromethyl)-5-(6-((4-(2-(oxetan-3-yl)-1,2,3,4-tetrahydroisoquinolin-7-yl)-1H-1,2,3-triazol-1-yl)methyl)pyridin-3-yl)-1,3,4-oxadiazole], the “HDAC6 selectivity (fold)” value at human recombinant HDAC6 (HDAC1 IC50 / HDAC6 IC50) is recorded as 1730 fold. For the same compound, the IC50 at human recombinant HDAC6 (setting [1]) is 28.9 nM; at human recombinant HDAC1 (setting [2]), over 50000 nM.

`Fc1ccc(-c2cn(Cc3ccc(-c4nnc(C(F)F)o4)cc3)nn2)cc1N1C[C@@H]2C[C@H]1CN2` [Compound 4398, 2-(4-((4-(3-((1S,4S)-2,5-diazabicyclo[2.2.1]heptan-2-yl)-4-fluorophenyl)-1H-1,2,3-triazol-1-yl)methyl)phenyl)-5-(difluoromethyl)-1,3,4-oxadiazole]: the “HDAC6 selectivity (fold)” value at human recombinant HDAC6 (HDAC1 IC50 / HDAC6 IC50) was 988 fold. Also, the IC50 at human recombinant HDAC6 (setting [1]) is 50.6 nM; at human recombinant HDAC1 (setting [2]) it was over 50000 nM.

`CN1CCC(c2cccc(-c3cn(Cc4ncc(-c5nnc(C(F)F)o5)cc4F)nn3)c2)CC1` [Compound 18869, 2-(difluoromethyl)-5-(5-fluoro-6-((4-(3-(1-methylpiperidin-4-yl)phenyl)-1H-1,2,3-triazol-1-yl)methyl)pyridin-3-yl)-1,3,4-oxadiazole]: the “HDAC6 selectivity (fold)” value at human recombinant HDAC6 (HDAC6 over HDAC1) was 1075 fold. The IC50 at human recombinant HDAC6 (setting [3]) was 46.5 nM; on human recombinant HDAC1 (setting [4]) it was over 50000 nM.

With `Fc1cc(-c2nnc(C(F)F)o2)ccc1Cn1cc(-c2cccc(NC3CCOCC3)c2)nn1` [Compound 4331, N-(3-(1-(4-(5-(difluoromethyl)-1,3,4-oxadiazol-2-yl)-2-fluorobenzyl)-1H-1,2,3-triazol-4-yl)phenyl)tetrahydro-2H-pyran-4-amine], the “HDAC6 selectivity (fold)” value on human recombinant HDAC6 (HDAC1 IC50 / HDAC6 IC50) is given as 1106 fold. Also, the IC50 is 45.2 nM on human recombinant HDAC6 (setting [1]) and over 50000 nM at human recombinant HDAC1 (setting [2]).

With `Fc1cc(-c2nnc(C(F)F)o2)ccc1Cn1cc(-c2ccnc(N3CCN(C4CCC4)CC3)c2)nn1` [Compound 4640, 2-(4-((4-(2-(4-cyclobutylpiperazin-1-yl)pyridin-4-yl)-1H-1,2,3-triazol-1-yl)methyl)-3-fluorophenyl)-5-(difluoromethyl)-1,3,4-oxadiazole], at human recombinant HDAC6 (HDAC6 over HDAC1), the “HDAC6 selectivity (fold)” value is reported as 807 fold. Moreover, the IC50 is 61.9 nM on human recombinant HDAC6 (setting [3]) and over 50000 nM on human recombinant HDAC1 (setting [4]).

As to `Fc1cc(-c2nnc(C(F)F)o2)ccc1Cn1cc(-c2cccc(C3CCN(C4COC4)CC3)c2)nn1` [Compound 4293, 2-(difluoromethyl)-5-(3-fluoro-4-((4-(3-(1-(oxetan-3-yl)piperidin-4-yl)phenyl)-1H-1,2,3-triazol-1-yl)methyl)phenyl)-1,3,4-oxadiazole], on human recombinant HDAC6 (HDAC1 IC50 / HDAC6 IC50), the “HDAC6 selectivity (fold)” value is reported as 618 fold. Also, the IC50 was 80.9 nM on human recombinant HDAC6 (setting [1]) and over 50000 nM on human recombinant HDAC1 (setting [2]).

As for `Fc1cc(-c2nnc(C(F)F)o2)ccc1Cn1cc(-c2ccc(CN3CCCCC3)cc2)nn1` [Compound 4610, 2-(difluoromethyl)-5-(3-fluoro-4-((4-(4-(piperidin-1-ylmethyl)phenyl)-1H-1,2,3-triazol-1-yl)methyl)phenyl)-1,3,4-oxadiazole], the “HDAC6 selectivity (fold)” value at human recombinant HDAC6 (HDAC6 over HDAC1) came out at 3496 fold. Further, the figures for the IC50 at human recombinant HDAC6 (setting [3]) and on human recombinant HDAC1 (setting [4]) were 14.3 nM and over 50000 nM, respectively.

On to `CN1CCN(c2cccc(-c3cn(Cc4ccc(-c5nnc(C(F)F)o5)cc4F)nn3)c2F)CC1` [Compound 4576, 2-(difluoromethyl)-5-(3-fluoro-4-((4-(2-fluoro-3-(4-methylpiperazin-1-yl)phenyl)-1H-1,2,3-triazol-1-yl)methyl)phenyl)-1,3,4-oxadiazol], for which the “HDAC6 selectivity (fold)” value on human recombinant HDAC6 (HDAC6 over HDAC1) came out at 2857 fold. In addition, the IC50 was 17.5 nM on human recombinant HDAC6 (setting [3]) and over 50000 nM on human recombinant HDAC1 (setting [4]).

For the compound `Fc1cc(-c2nnc(C(F)F)o2)ccc1Cn1cc(-c2ccc(CN3CCC3)s2)nn1` [Compound 17912, 2-(4-((4-(5-(azetidin-1-ylmethyl)thiophen-2-yl)-1H-1,2,3-triazol-1-yl)methyl)-3-fluorophenyl)-5-(difluoromethyl)-1,3,4-oxadiazole], the “HDAC6 selectivity (fold)” value at human recombinant HDAC6 (HDAC6 over HDAC1) was determined as 1237 fold. Besides, the IC50 was 40.4 nM on human recombinant HDAC6 (setting [3]) and over 50000 nM on human recombinant HDAC1 (setting [4]).

As for `CN1CCN(Cc2cccc(-c3cn(Cc4ccc(-c5nnc(C(F)F)o5)cc4F)nn3)c2)CC1` [Compound 4406, 2-(difluoromethyl)-5-(3-fluoro-4-((4-(3-((4-methylpiperazin-1-yl)methyl)phenyl)-1H-1,2,3-triazol-1-yl)methyl)phenyl)-1,3,4-oxadiazole], on human recombinant HDAC6 (HDAC1 IC50 / HDAC6 IC50), the “HDAC6 selectivity (fold)” value was found to be 892 fold. Also, the IC50 is 56 nM on human recombinant HDAC6 (setting [1]) and over 50000 nM at human recombinant HDAC1 (setting [2]).

`Fc1cc(-c2nnc(C(F)F)o2)ccc1Cn1cc(-c2ccc3c(c2)CCN(C2CN(C4COC4)C2)C3)nn1` [Compound 4395, 2-(difluoromethyl)-5-(3-fluoro-4-((4-(2-(1-(oxetan-3-yl)azetidin-3-yl)-1,2,3,4-tetrahydroisoquinolin-6-yl)-1H-1,2,3-triazol-1-yl)methyl)phenyl)-1,3,4-oxadiazole]: on human recombinant HDAC6 (HDAC1 IC50 / HDAC6 IC50), the “HDAC6 selectivity (fold)” value came out at 1024 fold. For the same compound, the IC50 on human recombinant HDAC6 (setting [1]) was 48.8 nM; on human recombinant HDAC1 (setting [2]) it was over 50000 nM.

As to `Fc1cc(-c2nnc(C(F)F)o2)ccc1Cn1cc(C2(F)CCOC2)nn1` (stereo not drawn) [Compound 4283, 2-(difluoromethyl)-5-(3-fluoro-4-((4-(3-fluorotetrahydrofuran-3-yl)-1H-1,2,3-triazol-1-yl)methyl)phenyl)-1,3,4-oxadiazole], the “HDAC6 selectivity (fold)” value at human recombinant HDAC6 (HDAC1 IC50 / HDAC6 IC50) came out at 203 fold. The IC50 at human recombinant HDAC6 (setting [1]) was 246 nM; on human recombinant HDAC1 (setting [2]), over 50000 nM.

For `FC(F)c1nnc(-c2ccc(Cn3cc([C@@H]4CCCN4C4COC4)nn3)nc2)o1` [Compound 4026, (S)-2-(difluoromethyl)-5-(6-((4-(1-(oxetan-3-yl)pyrrolidin-2-yl)-1H-1,2,3-triazol-1-yl)methyl)pyridin-3-yl)-1,3,4-oxadiazole], the “HDAC6 selectivity (fold)” value at human recombinant HDAC6 (HDAC1 IC50 / HDAC6 IC50) worked out at 189 fold. Moreover, the IC50 on human recombinant HDAC6 (setting [1]) was 263 nM; at human recombinant HDAC1 (setting [2]), over 50000 nM.

Turning to `Fc1cnccc1-c1cn(Cc2ccc(-c3nnc(C(F)F)o3)cn2)nn1` [Compound 4184, 2-(difluoromethyl)-5-(6-((4-(3-fluoropyridin-4-yl)-1H-1,2,3-triazol-1-yl)methyl)pyridin-3-yl)-1,3,4-oxadiazole], at human recombinant HDAC6 (HDAC1 IC50 / HDAC6 IC50), the “HDAC6 selectivity (fold)” value is listed as 1291 fold. Besides, the values for the IC50 at human recombinant HDAC6 (setting [1]) and at human recombinant HDAC1 (setting [2]) were 38.7 nM and over 50000 nM, respectively.
